Experimental data as given in ChEMBL document CHEMBL4840358, “Discovery of Modified Amidate (ProTide) Prodrugs of Tenofovir with Enhanced Antiviral Properties” (J Med Chem, 2021).
Structures can show the parent of a compound that is named as a salt.

Key:
[1] = test system: Human immunodeficiency virus 1; assay: Antiviral activity against HIV-1 infected in MT4 cells assessed as reduction in virus-induced cytopathic effect preincubated for 1 hr followed by viral infection and measured after 5 days by XTT assay; type: functional, organism-based; conditions: Human immunodeficiency virus 1, MT4
[2] = Cytotoxicity against in human MT4 cells after 5 days by XTT assay; type: cell-based; conditions: time 5 day
[3] = target: T1, Lysosomal protective protein (Homo sapiens) (UniProt P10619); assay: Substrate activity at cathepsin A (unknown origin) at 30 uM after 30 mins
T1 sequence (whole entry): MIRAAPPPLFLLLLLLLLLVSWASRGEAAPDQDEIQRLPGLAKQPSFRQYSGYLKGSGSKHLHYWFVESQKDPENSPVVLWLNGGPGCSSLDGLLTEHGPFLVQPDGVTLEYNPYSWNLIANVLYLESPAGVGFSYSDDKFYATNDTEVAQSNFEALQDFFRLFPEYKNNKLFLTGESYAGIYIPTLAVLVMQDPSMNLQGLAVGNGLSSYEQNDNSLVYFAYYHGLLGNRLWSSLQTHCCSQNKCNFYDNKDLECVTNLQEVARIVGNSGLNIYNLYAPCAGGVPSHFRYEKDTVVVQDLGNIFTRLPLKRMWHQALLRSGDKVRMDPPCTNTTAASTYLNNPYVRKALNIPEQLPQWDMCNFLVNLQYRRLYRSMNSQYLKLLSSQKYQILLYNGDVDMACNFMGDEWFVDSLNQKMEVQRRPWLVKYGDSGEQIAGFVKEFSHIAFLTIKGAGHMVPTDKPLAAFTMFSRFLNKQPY

[4] = Drug uptake in human CCRF-CEM cells assessed as intracellular intact prodrug level at 50 uM after 45 mins by ECHO-MS analysis; type: ADME, cell-based; conditions: 0.75 h
[5] = Drug uptake in human CCRF-CEM cells assessed as released tenofovir level at 50 uM after 45 mins by ECHO-MS analysis; type: ADME, cell-based; conditions: 0.75 h
Hepatitis B virus = assay: Antiviral activity against HBV infected in human HepG2-hNTCP cells assessed as reduction in HBV DNA incubated for day 1 followed by compound washout and fresh compound addition on following day and day 3, 6 and 10 measured on day 14 post infection by qPCR analysis; type: functional, organism-based
[6] = Cytotoxicity against human HepG2-hNTCP cells incubated for 3 days by XTT assay; type: cell-based; conditions: time 3 day
[7] = Stability of compound in pooled human plasma assessed as compound remaining at 5 uM measured for 120 to 240 mins by ECHO-MS analysis; type: ADME, cell-free; conditions: time 120-240 min, read-out: Stability
[8] = Stability of compound in pooled human hepatic microsomes assessed as compound remaining at 5 uM measured upto 30 mins in presence of NADPH by ECHO-MS analysis; type: ADME, Microsome; conditions: pooled liver microsomes, read-out: Stability
[9] = Selectivity index, ratio of CC50 for human MT-4 cells to EC50 for HIV-1 infected in MT-4 cells; type: toxicity, cell-based; conditions: read-out: Ratio CC50/EC50
[10] = test system: Human immunodeficiency virus 1; assay: Antiviral activity against HIV-1; type: functional, organism-based
[11] = Solubility of compound in water at 25 uM after 24 hrs by HPLC analysis; type: physicochemical
[12] = Stability of compound in pooled human plasma assessed as half life at 5 uM measured for 120 to 240 mins by ECHO-MS analysis; type: ADME, cell-free; conditions: time 120-240 min

SMILES | EC50 [1] [nM] | CC50 at 120 h [2] [nM] | Activity [3] [pmol/min/mg] | Drug uptake [4] [pmol] | Drug uptake [5] [pmol] | EC50 (Hepatitis B virus) [nM] | CC50 at 72 h [6] [nM] | remaining at 5 µM [7] [%] | remaining at 0.5 h, 5 µM [8] [%] | selectivity ratio [9] | EC50 [10] [nM] | solubility at 24 h, 25 µM [11] [µM] | half-life at 5 µM [12] [h]
CC(C)OC(=O)[C@H](C)N[P@@](=O)(CO[C@H](C)Cn1cnc2c(N)ncnc21)Oc1ccc(C[C@H](NC(=O)CCc2ccccc2)C(=O)OC2CCCC2)cc1 | 0.36 | 11000 | 29.5 | 0.12 | 27.89 | 1.4 | > 50000 |  |  |  |  |  | 
CC(C)OC(=O)[C@H](C)N[P@](=O)(CO[C@H](C)Cn1cnc2c(N)ncnc21)Oc1ccc(C[C@H](NC(=O)CCc2ccccc2)C(=O)OC2CCCC2)cc1 | 0.01 | 8800 | 26 | 0.37 | 64.26 | 4.4 | > 50000 | 76 | 0.01 | 880000 |  |  | 
CC(C)OC(=O)[C@H](C)N[P@](=O)(CO[C@H](C)Cn1cnc2c(N)ncnc21)Oc1ccc(C[C@H](NC(=O)OCc2ccccc2)C(=O)CC2CCCC2)cc1 | 0.006 | 9200 | 39.7 | 102.36 | 148.09 | 2.8 | > 50000 | 88 | 0.04 | 1.53e+06 |  |  | 
CC(C)OC(=O)[C@H](C)N[P@](=O)(CO[C@H](C)Cn1cnc2c(N)ncnc21)Oc1ccc(C[C@H](NC(=O)OCc2ccccc2)C(=O)OC2CCCC2)cc1 |  |  | 33.6 |  |  |  |  |  |  |  |  |  | 
C[C@H](Cn1cnc2c(N)ncnc21)OCP(=O)(O)O [TENOFOVIR ANHYDROUS] |  |  |  |  |  |  |  |  |  | 36 | 5000 |  | 
CC(C)OC(=O)[C@H](C)N[P@](=O)(CO[C@H](C)Cn1cnc2c(N)ncnc21)Oc1ccc(C[C@H](NC(=O)OCc2ccccc2)C(=O)OC2CCCC2)cc1.Cl |  |  |  |  |  |  |  |  |  |  |  | 210 | 
CC(C)OC(=O)OCOP(=O)(CO[C@H](C)Cn1cnc2c(N)ncnc21)OCOC(=O)OC(C)C [TENOFOVIR DISOPROXIL FUMARATE] |  |  |  |  |  |  |  |  |  | 656 | 50 |  | 
CC(C)OC(=O)[C@H](C)N[P@@](=O)(CO[C@H](C)Cn1cnc2c(N)ncnc21)Oc1ccc(C[C@H](NC(=O)OCc2ccccc2)C(=O)OC2CCCC2)cc1 | 16 | 17000 | 35.9 | 0.22 | 20.25 |  |  | 56 | 0.01 |  |  |  | 4.62
CC(C)OC(=O)[C@H](C)N[P@](=O)(CO[C@H](C)Cn1cnc2c(N)ncnc21)Oc1ccc(C[C@H](NCCCc2ccccc2)C(=O)CC2CCCC2)cc1 | 0.06 | 48000 | 16.3 | 11.37 | 304.5 |  |  | 77 | 1 | 800000 |  |  | 
CC(C)OC(=O)[C@H](C)N[P@@](=O)(CO[C@H](C)Cn1cnc2c(N)ncnc21)Oc1ccc(C[C@H](NC(=O)OCc2ccccc2)C(=O)CC2CCCC2)cc1 | 0.15 | 7600 | 30.3 | 248 | 78.88 | 3.4 | > 50000 |  |  |  |  |  | 
CC(C)OC(=O)[C@H](C)N[P@](=O)(CO[C@H](C)Cn1cnc2c(N)ncnc21)Oc1ccc(C[C@H](NC(=O)OCc2ccccc2)C(=O)OC2CCCC2)cc1.O=C(O)/C=C/C(=O)O |  |  |  |  |  |  |  |  |  |  |  | 104 | 
CC(C)OC(=O)[C@H](C)N[P@](=O)(CO[C@H](C)Cn1cnc2c(N)ncnc21)Oc1ccc(C[C@H](NCCCc2ccccc2)C(=O)OC2CCCC2)cc1 | 0.28 | 6000 |  |  |  | 19 | > 50000 |  |  | 21400 |  |  | 
